# Experimental data: patent publication US10722498B2, “Acetazolamide ophthalmic solution” (INNOVATIVE NANO & MICRO TECHNOLOGIES PVT LTD (INM …, priority 2017, dated 2020)
# Assays:
# [1] = tested on: New Zealand white rabbit eyes; test: Measurement of intraocular pressure in rabbit eyes (tonometry); format: in vivo; conditions: rabbits, oral acetazolamide 12.92 mg/kg
# Procedure: The inhibition of the ocular hypertension was determined by the following protocol: The experiments were performed in new New Zealand white rabbit eyes by using tonometry method. Rabbits were divided into groups; where each group consists of 4 animals. Group 1, Group 2, Group 3, Group 4 and Group 5 of Rabbits are administered with the predetermined concentrations of ophthalmic compositions of Example 1, 2, 3, 4 and 5 respectively. Group 6 of Rabbits are administered with oral acetazolamide 12.92 mg/kg. The intraocular pressure was measured at 0, 0.5, 1, 4, 8, 12 hrs. After 6 hours, one more administration of ophthalmic composition of Example 1 was instilled in Group 1 of Rabbits and the intraocular pressure was measured.
# The percentage change in the intraocular pressure is depicted in the following table 1.
# [2] = cited from earlier work
structure (smiles),measurement,setting,value
"CC(=O)Nc1nnc(S(N)(=O)=O)s1 [Oral acetazolamide, acetazolamide]",percentage change in the intraocular pressure,"[1]; 0.5 hrs after administration, 4 per group, eye drops instilled",18.00%
same,percentage change in the intraocular pressure,"[1]; 1 hr after administration, eye drops instilled",14.00%
same,percentage change in the intraocular pressure,"[1]; 4 hrs after administration, eye drops instilled",14.00%
same,percentage change in the intraocular pressure,"[1]; 6 hrs after administration, eye drops instilled",14.00%
same,percentage change in the intraocular pressure,"[1]; 8 hrs after administration, Group 1 (Example 1) had a second instillation after 6 hours",6.00%
same,percentage change in the intraocular pressure,"[1]; 12 hrs after administration, Group 1 (Example 1) had a second instillation after 6 hours",6.00%
same,solubility in water,[2],very low solubility in water
